The text below walks through data of ChEMBL document CHEMBL1201862, “PubChem BioAssay data set” (2004).

Some test systems named below: SNB-75; SK-OV-3; HCT-15; MDA-MB-231; RPMI-8226; SF-295; U-251; DU-145; CCRF-CEM; SK-MEL-5; K562; HCC 2998; SF-268; PC-3; NCI-H23; NCI-H460; NCI/ADR-RES; HOP-92; UACC-257; OVCAR-5.
What all share (assay): inhibition of tumour cell growth, NCI panel, 48 h

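Dose response: 5 concentrations. Exposure: 48 h. Format: 96-well plates. Endpoint: linear interpolation; highest concentration if not reached. At the GI50, growth is halved.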 The source made the active and inactive calls. Cut-off read from the data, not from the text of the source: active = GI50 up to about 1.1 µM and inactive = higher.

For `S=C(N/N=C/c1ccccn1)N1CCCCC1`, the GI50 in the assay on SNB-75 is 0.0315 µM (active); with SK-OV-3 it was < 0.01 µM (active); with HCT-15, < 0.01 µM; in the assay with MDA-MB-231, < 0.01 µM (active); in the assay with RPMI-8226, < 0.01 µM (active); in the assay on SF-295, 0.121 µM (active). In addition, the GI50 in the assay on U-251 is < 0.0126 µM (active); in the assay with DU-145 it was 0.243 µM (active); in the assay on CCRF-CEM it was < 0.01 µM (active); with SK-MEL-5, < 0.0198 µM (active); in the assay with K562 it was < 0.01 µM (active); in the assay on HCC 2998, 1.22 µM (inactive). For the same compound, the GI50 was < 0.0178 µM (active) in the assay with SF-268; < 0.01 µM (active) in the assay with PC-3; < 0.01 µM (active) in the assay on NCI-H23; < 0.019 µM (active) in the assay with NCI-H460; < 0.01 µM (active) in the assay on NCI/ADR-RES; 0.212 µM (active) with HOP-92. For the same compound, in the assay with UACC-257, the GI50 is < 0.01 µM (active).
Take `CCOC(=O)c1c(OCC)[nH]c(=O)c(C(c2cccs2)c2c(O)c(C(=O)OCC)c(OCC)[nH]c2=O)c1O`: the GI50 is 0.082 µM (active) with SNB-75; 14.5 µM in the assay with HCT-15; 11.1 µM (inactive) in the assay with MDA-MB-231; 12.1 µM (inactive) in the assay on RPMI-8226; 12 µM (inactive) with SF-295; 12.4 µM (inactive) in the assay on U-251. Besides, the GI50 with DU-145 was 13.9 µM (inactive); in the assay with CCRF-CEM it was 14.2 µM (inactive); in the assay on SK-MEL-5 it was 12.9 µM (inactive); in the assay with HCC 2998 it was 13.9 µM (inactive); in the assay with SF-268, 10.2 µM (inactive); in the assay with PC-3 it was 18.2 µM (inactive). Further, the GI50 in the assay with NCI-H23 is 21.4 µM (inactive); in the assay with NCI-H460, 13.3 µM (inactive); with NCI/ADR-RES, 27.4 µM (inactive); with OVCAR-5 it was 26.5 µM (inactive); with HOP-92, 9.42 µM (inactive); in the assay on UACC-257, 11.7 µM (inactive).
With `Clc1ccc(OCc2nnc(COc3ccc(OCc4nnc(COc5ccc(Cl)cc5Cl)o4)c(Cl)c3)o2)c(Cl)c1`, the GI50 is 89.7 µM in the assay with HCT-15; 21.7 µM (inactive) with MDA-MB-231; 17.3 µM (inactive) in the assay on RPMI-8226; 33.3 µM (inactive) with SF-295; 23 µM (inactive) in the assay with U-251; 71.3 µM (inactive) with DU-145. In addition, the GI50 with CCRF-CEM is 17.5 µM (inactive); with SK-MEL-5, 41.1 µM (inactive); in the assay with K562, 24.3 µM (inactive); with HCC 2998, 28.7 µM (inactive); in the assay with SF-268 it was 23.5 µM (inactive); in the assay on PC-3, 29.9 µM (inactive). Besides, the GI50 in the assay with NCI-H23 is 48.1 µM (inactive); in the assay on NCI-H460, 72.4 µM (inactive); in the assay on NCI/ADR-RES it was 24.5 µM (inactive); in the assay with OVCAR-5, 36.2 µM (inactive); in the assay on HOP-92, 7.48 µM (inactive); in the assay on UACC-257, > 100 µM (inactive).
Consider `Cc1nc(C(N)=S)sc1/C(CC(=O)C(=O)Nc1cccc2ccc(O)cc12)=N\NC(=O)c1ccncc1`, for which the GI50 in the assay on SNB-75 is > 100 µM (inactive); in the assay on SK-OV-3, > 100 µM (inactive); with HCT-15, 41.9 µM; in the assay on MDA-MB-231 it was > 100 µM (inactive); in the assay with SF-295, > 100 µM (inactive); with U-251, 68.5 µM (inactive). The GI50 was 55.3 µM (inactive) in the assay on DU-145; 33.4 µM (inactive) in the assay with CCRF-CEM; 33.2 µM (inactive) with SK-MEL-5; 59.8 µM (inactive) with HCC 2998; 82.8 µM (inactive) in the assay on SF-268; 75.9 µM (inactive) with PC-3. The GI50 with NCI-H23 is > 100 µM (inactive); in the assay with NCI-H460 it was 22.9 µM (inactive); with NCI/ADR-RES, > 100 µM (inactive); in the assay with OVCAR-5, > 100 µM (inactive); in the assay on HOP-92, 31.6 µM (inactive); with UACC-257 it was > 100 µM (inactive).
As for `Cc1cc(S(=O)(=O)Nc2nc3ccccc3n2-c2ccccc2)c(S)cc1Cl`, the GI50 in the assay with SNB-75 was > 100 µM (inactive); with HCT-15, > 100 µM; with MDA-MB-231 it was > 100 µM (inactive); with RPMI-8226, > 100 µM (inactive); in the assay on SF-295 it was 44.4 µM (inactive); with U-251, > 100 µM (inactive). Moreover, the GI50 with DU-145 was > 100 µM (inactive); with CCRF-CEM, > 100 µM (inactive); with SK-MEL-5, 50.6 µM (inactive); in the assay with K562 it was > 100 µM (inactive); in the assay on HCC 2998, > 100 µM (inactive); in the assay with SF-268, > 100 µM (inactive). Also, the GI50 with PC-3 was > 100 µM (inactive); in the assay on NCI-H460 it was 56.5 µM (inactive); with NCI/ADR-RES, > 100 µM (inactive); in the assay on OVCAR-5, > 100 µM (inactive); in the assay on HOP-92, > 100 µM (inactive); in the assay on UACC-257, > 100 µM (inactive).
Take `C=C1C(=O)O[C@@H]2C[C@@]3(C)CC(=O)C=C(C)[C@@H]3C[C@H]12`: the GI50 in the assay on SNB-75 is 16.1 µM (inactive); in the assay with SK-OV-3, 37.9 µM (inactive); in the assay on HCT-15, 4.03 µM; in the assay with MDA-MB-231 it was 16.9 µM (inactive); with RPMI-8226 it was 2.12 µM (inactive); in the assay with SF-295, 33.1 µM (inactive). In addition, the GI50 with U-251 is 15.5 µM (inactive); in the assay on DU-145, 4.29 µM (inactive); in the assay with CCRF-CEM, 5.83 µM (inactive); with SK-MEL-5 it was 10 µM (inactive); with HCC 2998, 14.2 µM (inactive); in the assay on SF-268, 11.8 µM (inactive). In addition, the GI50 with PC-3 was 18.2 µM (inactive); with NCI-H23, 13.8 µM (inactive); in the assay with NCI/ADR-RES it was 11.3 µM (inactive); in the assay on OVCAR-5 it was 14.7 µM (inactive); with HOP-92, 16.3 µM (inactive); in the assay on UACC-257 it was 12.2 µM (inactive).
Take `CS/C(N)=N/c1cccc2ccccc12`: the GI50 in the assay with SNB-75 is > 10 µM (inactive); in the assay with SK-OV-3, > 10 µM (inactive); with HCT-15, > 10 µM; in the assay with MDA-MB-231 it was > 10 µM (inactive); in the assay on RPMI-8226, > 10 µM (inactive); in the assay on SF-295, > 10 µM (inactive). Further, the GI50 in the assay on U-251, with DU-145, in the assay with CCRF-CEM, in the assay on SK-MEL-5, with K562 and in the assay with HCC 2998 was > 10 µM (inactive) throughout. Moreover, the GI50 with SF-268, in the assay with PC-3, in the assay with NCI-H23, with NCI-H460, in the assay on NCI/ADR-RES and with HOP-92 was > 10 µM (inactive) each time. In the assay with UACC-257, the GI50 was > 10 µM (inactive).
With `N#C/C(=C\c1cccc(Br)c1)c1nc2ccccc2c(=O)[nH]1`, the GI50 in the assay with SNB-75 was 17.7 µM (inactive); with SK-OV-3, > 100 µM (inactive); with HCT-15, > 100 µM; with MDA-MB-231, 41.7 µM (inactive); with RPMI-8226, > 100 µM (inactive); in the assay on SF-295, 53.5 µM (inactive). For the same compound, the GI50 in the assay on U-251 is 40.3 µM (inactive); with DU-145 it was > 100 µM (inactive); in the assay with CCRF-CEM, > 100 µM (inactive); in the assay on SK-MEL-5, > 100 µM (inactive); in the assay with K562, > 100 µM (inactive); in the assay on HCC 2998, > 100 µM (inactive). The GI50 in the assay on SF-268 was > 100 µM (inactive); with PC-3, > 100 µM (inactive); in the assay on NCI-H460 it was > 100 µM (inactive); with NCI/ADR-RES, > 100 µM (inactive); in the assay on OVCAR-5 it was > 100 µM (inactive); in the assay on HOP-92, 15.1 µM (inactive). In addition, the GI50 in the assay on UACC-257 was > 100 µM (inactive).
Turning to `CCOc1ccc(/C=N/[N+](C)(C)C)cc1OCC`, the GI50 in the assay on SNB-75 was > 10 µM (inactive); in the assay with SK-OV-3 it was > 10 µM (inactive); in the assay on HCT-15, > 10 µM; with MDA-MB-231, > 10 µM (inactive); in the assay on RPMI-8226, > 10 µM (inactive); in the assay with SF-295, > 10 µM (inactive). The GI50 with U-251, in the assay with DU-145, with CCRF-CEM, in the assay on SK-MEL-5, with K562 and with HCC 2998 was > 10 µM (inactive) each time. The GI50 in the assay on SF-268, with PC-3, with NCI-H23, with NCI/ADR-RES, in the assay on OVCAR-5 and with HOP-92 was > 10 µM (inactive) each time. The GI50 with UACC-257 is > 10 µM (inactive).
As to `CC(=O)O[C@H]1CC[C@H]2[C@@H]3CCC4=C(C(=O)C=CC4(C)OC(C)=O)[C@H]3CC[C@]12C` (some centres not stated), the GI50 was 45 µM (inactive) in the assay with SNB-75; 64.3 µM with HCT-15; 41 µM (inactive) with MDA-MB-231; 38.3 µM (inactive) in the assay with RPMI-8226; 98.4 µM (inactive) in the assay with SF-295; 82.6 µM (inactive) in the assay on U-251. In addition, the GI50 in the assay on DU-145 was > 100 µM (inactive); in the assay with CCRF-CEM, 31.6 µM (inactive); in the assay on SK-MEL-5, 47.9 µM (inactive); in the assay with K562, 33.1 µM (inactive); in the assay on HCC 2998 it was 38.3 µM (inactive); in the assay on SF-268, 83.4 µM (inactive). The GI50 in the assay on PC-3 is 48 µM (inactive); in the assay on NCI-H23, 35.8 µM (inactive); with NCI-H460, 42.3 µM (inactive); with NCI/ADR-RES it was 43.7 µM (inactive); in the assay with OVCAR-5, > 100 µM (inactive); in the assay on HOP-92 it was 63.2 µM (inactive). Also, the GI50 in the assay on UACC-257 is > 100 µM (inactive).
For the compound `O=[N+]([O-])c1cccc2nc3ccccc3c(NCCN(CCO)CCO)c12`, the GI50 was 0.00726 µM (active) in the assay with SNB-75; 0.00989 µM (active) in the assay on SK-OV-3; 0.0108 µM in the assay on HCT-15; 0.00268 µM (active) in the assay on MDA-MB-231; 0.00246 µM (active) in the assay with RPMI-8226; 0.00698 µM (active) in the assay with SF-295. The GI50 in the assay on U-251 was 0.00391 µM (active); with DU-145, 0.00208 µM (active); in the assay with SK-MEL-5, 0.00192 µM (active); with HCC 2998 it was 0.00235 µM (active); in the assay with SF-268, 0.00423 µM (active); in the assay with PC-3 it was 0.00213 µM (active). For the same compound, the GI50 with NCI-H23 was 0.00222 µM (active); with NCI-H460, 0.000815 µM (active); with NCI/ADR-RES, 0.128 µM (active); in the assay with OVCAR-5, 0.00501 µM (active); with HOP-92 it was 0.00447 µM (active).
